Measurements published in EP0326331B1, “Substituted quinolines and cinnolines” (Dow AgroSciences LLC, priority 1988, dated 1989).
Like-named read-outs stand apart in the source and are kept apart here.

How the values were obtained:
Type in all cases: in vivo
[1] = tested on: Cercospora beticola (leaf spot); test: Test 1 greenhouse foliar spray screen, leaf spot on sugar beet; conditions: disease control rating, foliar spray on sugar beet, 400 ppm (+++ at 100 ppm)
[2] = tested on: Pyricularia oryzae (rice blast); test: whole plant or invertebrate; conditions: disease control rating, foliar spray on rice, 400 ppm (+++ at 100 ppm)
[3] = tested on: Pseudoperonospora cubensis (downy mildew); test: Test 1 greenhouse foliar spray screen, downy mildew on squash; conditions: for DOWN MDEW: disease control rating, foliar spray on squash, 400 ppm (+++ at 100 ppm)
[4] = tested on: melon aphids (Aphis gossypii Glover); test: Mite/insect screen, MA; conditions: percent mortality; for mortality at 200 ppm / mortality at 400 ppm: Aphis gossypii, read-out: MA RESULTS %
How it was run: (§1)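 Compounds dissolved in acetone/alcohol (50:50) with TOXIMUL R and S emulsifiers, diluted in water to test concentrations, and sprayed to runoff on both leaf surfaces at 10 psi, then dried 1 h. For armyworm, excised treated leaves were offered to larvae; percent mortality scored after standard exposure periods.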

[5] = tested on: southern armyworm (Spodopetra eridania Cramer); test: Mite/insect screen, SAW; conditions: percent mortality; for mortality at 200 ppm / mortality at 400 ppm: Spodoptera eridania, read-out: SAW RESULTS %
How it was run: as §1

[6] = tested on: corn rootworm; test: Mite/insect screen, CRW; conditions: percent mortality; for mortality at 12 ppm / mortality at 24 ppm: read-out: CRW RESULTS %
How it was run: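 Compounds dissolved in 50:50 acetone/alcohol with TOXIMUL R and S emulsifiers (23 and 13 g/L), then diluted in water to the stated test concentrations. Percent mortality of corn rootworm scored after standard exposure periods.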

[7] = tested on: Septoria tritici (leaf blotch); test: Test 1 greenhouse foliar spray screen, leaf blotch on wheat; conditions: disease control rating, foliar spray on wheat, 400 ppm (+++ at 100 ppm)
[8] = tested on: Puccinia recondita tritici (leaf rust); test: Test 1 greenhouse foliar spray screen, leaf rust on wheat; conditions: disease control rating, foliar spray on wheat, 400 ppm (+++ at 100 ppm)
[9] = tested on: Erysiphe graminis tritici (powdery mildew); test: Test 1 greenhouse foliar spray screen, powdery mildew on wheat; conditions: disease control rating, foliar spray on wheat, 400 ppm (+++ at 100 ppm)
[10] = tested on: Twospotted spider mites (Tetranychus urticae Koch); test: Mite/insect screen, SM; conditions: percent mortality; for mortality at 200 ppm / mortality at 400 ppm: Tetranychus urticae, read-out: SM RESULTS %
How it was run: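 Compounds dissolved in 50:50 acetone/alcohol containing sulfonate/nonionic emulsifier blends, then diluted with water to the indicated concentrations. Leaves sprayed on both surfaces to runoff at 10 psi and dried one hour. Percent mortality scored after standard exposure periods.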

[11] = tested on: Botrytis cinerea (gray mold); test: Test 1 greenhouse foliar spray screen, gray mold on grape berries; conditions: disease control rating, spray on grape berries, 400 ppm (+++ at 100 ppm)
[12] = tested on: Venturia inaequalis (apple scab); test: Test 1 greenhouse foliar spray screen, apple scab on apple seedling; conditions: disease control rating, foliar spray on apple seedling, 400 ppm (+++ at 100 ppm)
[13] = foliar, rate 200 ppm, foliar spray on squash
[14] = foliar, rate 400 ppm, foliar spray on squash

Row | SMILES | LEAF SPOT [1] | RICE BLAST [2] | DOWN MDEW [3] | mortality at 200 ppm ([4]; SAW, SM & MA RATE 200 PPM) [%] | mortality at 200 ppm ([5]; SAW, SM & MA RATE 200 PPM) [%] | mortality at 12 ppm ([6]; CRW RATE 12.00 PPM) [%] | LEAF BLOT [7] | LEAF RUST [8] | POWD MDEW [9] | mortality at 200 ppm ([10]; SAW, SM & MA RATE 200 PPM) [%] | GRAY MOLD [11] | APPL SCAB [12] | mortality at 200 ppm [4, 13] [%] | mortality at 200 ppm [5, 13] [%] | mortality at 12 ppm ([6]; CRW rate 12.00 ppm) [%] | mortality at 200 ppm [10, 13] [%] | further results
1 | Clc1cccc2c(NCCc3cccc4ccccc34)ccnc12 [Example 155, 8-chloro-N-[2-(1-naphthyl)ethyl]-4-quinolinamine] | - (0-19% control at 400 ppm) | + (20-89% control at 400 ppm) | +++ (90-100% control at 100 ppm) | 0 | 0 | 0 | - (0-19% control at 400 ppm) | - (0-19% control at 400 ppm) | - (0-19% control at 400 ppm) | 0 | - (0-19% control at 400 ppm) | - (0-19% control at 400 ppm) |  |  |  |  | 
2 | Clc1cccc2c(NCCc3ccc4ccccc4c3)ccnc12 [Example 156, 8-chloro-N-[2-(2-naphthyl)ethyl]-4-quinolinamine] | - (0-19% control at 400 ppm) | + (20-89% control at 400 ppm) | +++ (90-100% control at 100 ppm) | 0 | 0 | 0 | - (0-19% control at 400 ppm) | + (20-89% control at 400 ppm) | - (0-19% control at 400 ppm) | 0 | - (0-19% control at 400 ppm) | - (0-19% control at 400 ppm) |  |  |  |  | MA RESULTS % ([4]; SAW, SM & MA RATE 200 PPM): 0%; SAW RESULTS % ([5]; SAW, SM & MA RATE 200 PPM): 0%; CRW RESULTS % ([6]; CRW RATE 12.00 PPM): 0%; SM RESULTS % ([10]; SAW, SM & MA RATE 200 PPM): 0%
3 | Fc1cccc2c(NCCc3cccc4ccccc34)ccnc12 [Example 158, 8-fluoro-N-[2-(1-naphthyl)ethyl]-4-quinolinamine] | + (20-89% control at 400 ppm) | +++ (90-100% control at 100 ppm) | +++ (90-100% control at 100 ppm) | 0 | 0 | 0 | +++ (90-100% control at 100 ppm) | +++ (90-100% control at 100 ppm) | + (20-89% control at 400 ppm) | 0 | - (0-19% control at 400 ppm) | - (0-19% control at 400 ppm) |  |  |  |  | 
4 | Cc1ccc(CCNc2ccnc3c(F)cccc23)s1 [Example 162, 8-fluoro-N-[2-(5-methyl-2-thienyl)ethyl]-4-quinolinamine] | - (0-19% control at 400 ppm) | + (20-89% control at 400 ppm) | +++ (90-100% control at 100 ppm) | 0 | 0 | 0 | - (0-19% control at 400 ppm) | ++ (90-100% control at 400 ppm) | + (20-89% control at 400 ppm) | 0 | - (0-19% control at 400 ppm) | - (0-19% control at 400 ppm) |  |  |  |  | 
5 | Fc1cccc2c(NCCc3ccc(Cl)s3)ccnc12 [Example 163, N-[2-(5-chloro-2-thienyl)ethyl]-8-fluoro-4-quinolinamine] | +++ (90-100% control at 100 ppm) | + (20-89% control at 400 ppm) | ++ (90-100% control at 400 ppm) | 0 | 0 | 0 | - (0-19% control at 400 ppm) | +++ (90-100% control at 100 ppm) | ++ (90-100% control at 400 ppm) | 0 | - (0-19% control at 400 ppm) | - (0-19% control at 400 ppm) |  |  |  |  | 
6 | Fc1cccc2c(NCCc3c[nH]cn3)ccnc12 [Example 164, 8-fluoro-N-[2-(1H-imidazol-4-yl)ethyl]-4-quinolinamine] | + (20-89% control at 400 ppm) | + (20-89% control at 400 ppm) | ++ (90-100% control at 400 ppm) | 0 | 0 | 0 | - (0-19% control at 400 ppm) | + (20-89% control at 400 ppm) | - (0-19% control at 400 ppm) | 0 | + (20-89% control at 400 ppm) | - (0-19% control at 400 ppm) |  |  |  |  | 
7 | Clc1ccc2c(NCCC3=CCCCC3)ccnc2c1 [Example 165, 7-chloro-N-[2-(1-cyclohexenyl)ethyl]-4-quinolinamine] | +++ (90-100% control at 100 ppm) | ++ (90-100% control at 400 ppm) | +++ (90-100% control at 100 ppm) |  |  |  | - (0-19% control at 400 ppm) | ++ (90-100% control at 400 ppm) | + (20-89% control at 400 ppm) |  | - (0-19% control at 400 ppm) | + (20-89% control at 400 ppm) | 0 | 0 | 0 | 0 | activity against downy mildew ([3]; summary statement in the description): particularly excellent activity; mortality at 400 ppm ([4]; SAW, SM & MA RATE 400 PPM): 0%; mortality at 400 ppm ([5]; SAW, SM & MA RATE 400 PPM): 0%; mortality at 24 ppm ([6]; CRW RATE 24.00 PPM): 0%; mortality at 400 ppm ([10]; SAW, SM & MA RATE 400 PPM): 0%
8 | Clc1ccc2c(NCCc3ccc4ccccc4c3)ccnc2c1 [Example 166, 7-chloro-N-[2-(2-naphthyl)ethyl]-4-quinolinamine] | - (0-19% control at 400 ppm) | + (20-89% control at 400 ppm) | +++ (90-100% control at 100 ppm) |  |  |  | + (20-89% control at 400 ppm) | + (20-89% control at 400 ppm) | + (20-89% control at 400 ppm) |  | - (0-19% control at 400 ppm) | - (0-19% control at 400 ppm) | 0 | 0 | 0 | 0 | mortality at 400 ppm [4, 14]: 0%; mortality at 400 ppm [5, 14]: 0%; mortality at 24 ppm ([6]; CRW rate 24.00 ppm): 0%; mortality at 400 ppm [10, 14]: 0%
9 | Fc1ccc2nccc(NCCC3=CCCCC3)c2c1 [Example 168, N-[2-(1-cyclohexenyl)ethyl]-6-fluoro-4-quinolinamine] | - (0-19% control at 400 ppm) | ++ (90-100% control at 400 ppm) | +++ (90-100% control at 100 ppm) |  |  |  | - (0-19% control at 400 ppm) | ++ (90-100% control at 400 ppm) | + (20-89% control at 400 ppm) |  | - (0-19% control at 400 ppm) | - (0-19% control at 400 ppm) | 0 | 0 | 0 | 0 | mortality at 400 ppm [4, 14]: 0%; mortality at 400 ppm [5, 14]: 0%; mortality at 24 ppm ([6]; CRW rate 24.00 ppm): 0%; mortality at 400 ppm [10, 14]: 0%
